PMC8911181, “A Novel CDK4/6 and PARP Dual Inhibitor ZC-22 Effectively Suppresses Tumor Growth and Improves the Response to Cisplatin Treatment in Breast and Ovarian Cancer” (International Journal of Molecular Sciences, 2022)

System: breast and ovarian cancer cells
Assay: CCK-8 cell proliferation/viability at fixed concentration
Assay type: cell-based, human
Conditions: 48 or 72 h
Method: Cell viability assay was performed as described before. Briefly, 2500/well of breast or ovarian cancer cells were seeded into a 96-well plate; grown overnight; treated with indicated concentration of Olaparib, LY2835219, ZC22, LP-1, GC-24, or cisplatin alone or together for an indicated amount of time; and then incubated with Cell Counting kit-8 (CCK-8) substrate (Dojindo, Kumamoto, Kyushu Island, Japan) for 1–2 h at 37 °C. Cell viability was calculated by the absorbance at 450 nm measured by the GloMax Explorer (Promega, Madison, WI, USA). Cells without treatment were set as 100%, and medium control (no cells) was set as 0%.
Figure 2 ZC-22 suppresses proliferation of breast and ovarian cancer cells. (A) IC50 of ZC-22, Olaparib, and LY2835219 (Abemaciclib) in breast and ovarian cancer cells. […] Cell proliferation was analyzed by CCK-8 assays. […] Cell proliferation assay was analyzed by CCK-8 assays. […]
Figure 5 ZC-22 increases the sensitivity of breast and ovarian cancer cells to cisplatin. […] Representative pictures of EdU staining are shown in the left panels, and quantification of percentage of EdU-positive cells was presented in the bar graphs on the right, n = 3. […] (D) Representative pictures (left) and quantification of percentage (right) of γH2A.X-positive cells in MDA-MB-231 (top panels) and OVCAR5 (bottom panels) cells treated with DDP alone or together with OLA or ZC-22 for 24 h, n = 3. […]

Structure (SMILES): Cc1nc2c(F)cc(-c3nc(Nc4ccc(N5CCN(C(=O)c6cc(Cc7n[nH]c(=O)c8ccccc78)ccc6F)CC5)cn4)ncc3F)cc2n1C(C)C [ZC-22, 4-(4-fluoro-3-(4-(6-((5-fluoro-4-(4-fluoro-1-isopropyl-2-methyl-1H-benzo[d]imidazole-6-yl)pyrimidin-2-yl)amino)pyridin-3-yl)piperazine-1-carbonyl)benzyl)phthalazin-1(2H)-one]
- growth inhibition compared with Olaparib and Abemaciclib alone and combined (MDA-MB-231 2 μM, SUM-159, OVCAR5, SKOV3 0.5 μM): better anti-tumor efficacy than the Olaparib and Abemaciclib monotherapy, and the combination therapy
- sensitization of cells to cisplatin (cell viability) (cisplatin 2.5 μM (SKOV3 5 μM) together with 2 μM or 0.5 μM compound): greatly sensitized breast and ovarian cancer cells to cisplatin
